How the values were obtained:
Assay in all cases: CYP450 isoform inhibition, late-stage follow-up, ADME assay for V1a-R antagonist project, biochemical, LC-MS (AID 743029)
[1] = target: Cytochrome P450 1A2 (Homo sapiens) (UniProt P05177); settings: human CYP isoforms, marker substrate metabolism, CYP1A2, at 10 µM, stronger effect = higher value
[2] = target: Cytochrome P450 2C9 (Homo sapiens) (UniProt P11712); settings: human CYP isoforms, marker substrate metabolism, CYP2C9, at 10 µM, stronger effect = higher value
[3] = target: Cytochrome P450 2D6 (Homo sapiens) (UniProt P10635); settings: human CYP isoforms, marker substrate metabolism, CYP2D6, at 10 µM, stronger effect = higher value
[4] = target: Cytochrome P450 3A4 (Homo sapiens) (UniProt P08684); settings: human CYP isoforms, marker substrate metabolism, CYP3A4, at 10 µM, stronger effect = higher value
Cytochrome P450 3A4 (Homo sapiens), sequence (P08684 whole entry, looked up, canonical isoform): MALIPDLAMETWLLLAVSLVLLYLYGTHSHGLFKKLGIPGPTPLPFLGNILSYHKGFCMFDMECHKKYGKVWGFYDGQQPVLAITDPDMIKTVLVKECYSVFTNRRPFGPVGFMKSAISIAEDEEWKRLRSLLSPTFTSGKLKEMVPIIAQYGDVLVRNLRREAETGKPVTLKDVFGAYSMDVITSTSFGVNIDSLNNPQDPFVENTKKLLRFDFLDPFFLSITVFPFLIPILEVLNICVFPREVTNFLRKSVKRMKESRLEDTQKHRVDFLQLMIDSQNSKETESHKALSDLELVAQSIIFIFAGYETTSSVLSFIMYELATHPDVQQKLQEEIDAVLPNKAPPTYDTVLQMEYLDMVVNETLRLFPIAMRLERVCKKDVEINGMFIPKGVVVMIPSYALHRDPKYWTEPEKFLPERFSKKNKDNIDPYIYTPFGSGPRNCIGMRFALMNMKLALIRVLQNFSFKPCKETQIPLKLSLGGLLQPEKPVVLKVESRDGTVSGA

Cytochrome P450 1A2 (Homo sapiens), sequence (P05177 whole entry, looked up, canonical isoform): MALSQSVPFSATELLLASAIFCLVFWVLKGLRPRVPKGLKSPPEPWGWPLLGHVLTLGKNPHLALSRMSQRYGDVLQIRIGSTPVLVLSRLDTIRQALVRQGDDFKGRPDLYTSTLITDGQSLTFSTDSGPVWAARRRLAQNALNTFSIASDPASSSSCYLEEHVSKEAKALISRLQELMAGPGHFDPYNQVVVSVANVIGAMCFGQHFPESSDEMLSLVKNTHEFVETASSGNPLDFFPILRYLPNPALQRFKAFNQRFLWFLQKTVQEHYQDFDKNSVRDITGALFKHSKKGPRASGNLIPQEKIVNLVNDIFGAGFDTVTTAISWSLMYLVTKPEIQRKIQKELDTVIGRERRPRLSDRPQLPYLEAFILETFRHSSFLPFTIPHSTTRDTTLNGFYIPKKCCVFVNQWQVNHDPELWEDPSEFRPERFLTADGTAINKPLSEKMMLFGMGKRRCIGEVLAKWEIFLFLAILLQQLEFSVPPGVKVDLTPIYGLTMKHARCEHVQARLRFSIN
Cytochrome P450 2C9 (Homo sapiens), sequence (P11712 whole entry, looked up, canonical isoform): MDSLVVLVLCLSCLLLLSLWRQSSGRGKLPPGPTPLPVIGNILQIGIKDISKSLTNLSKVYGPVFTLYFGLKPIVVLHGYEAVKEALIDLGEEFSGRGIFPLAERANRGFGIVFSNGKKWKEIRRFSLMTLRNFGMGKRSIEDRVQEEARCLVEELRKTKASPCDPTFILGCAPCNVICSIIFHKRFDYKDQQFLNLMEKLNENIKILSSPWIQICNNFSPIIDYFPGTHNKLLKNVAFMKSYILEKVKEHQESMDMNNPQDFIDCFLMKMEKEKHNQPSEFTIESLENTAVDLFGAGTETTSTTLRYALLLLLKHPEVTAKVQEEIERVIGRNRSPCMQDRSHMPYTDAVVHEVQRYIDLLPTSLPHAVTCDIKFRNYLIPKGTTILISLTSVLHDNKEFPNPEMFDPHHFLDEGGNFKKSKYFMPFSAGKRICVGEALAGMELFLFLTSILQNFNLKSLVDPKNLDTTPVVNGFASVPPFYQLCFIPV
Cytochrome P450 2D6 (Homo sapiens), sequence (P10635 whole entry, looked up, canonical isoform): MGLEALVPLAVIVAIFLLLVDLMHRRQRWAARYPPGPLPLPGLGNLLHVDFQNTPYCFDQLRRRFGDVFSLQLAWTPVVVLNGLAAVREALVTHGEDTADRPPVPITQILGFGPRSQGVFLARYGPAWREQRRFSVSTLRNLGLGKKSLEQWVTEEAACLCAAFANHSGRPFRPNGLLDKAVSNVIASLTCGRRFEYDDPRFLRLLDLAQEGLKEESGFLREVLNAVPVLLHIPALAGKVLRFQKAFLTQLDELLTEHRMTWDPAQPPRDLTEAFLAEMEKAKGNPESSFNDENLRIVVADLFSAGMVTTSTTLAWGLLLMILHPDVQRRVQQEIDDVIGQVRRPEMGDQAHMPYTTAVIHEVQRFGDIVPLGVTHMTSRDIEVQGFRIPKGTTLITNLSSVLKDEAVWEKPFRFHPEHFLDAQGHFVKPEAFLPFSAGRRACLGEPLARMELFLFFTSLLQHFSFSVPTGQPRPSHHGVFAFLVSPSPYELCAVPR

inhibition [1]: -19%
inhibition [2]: -6%
inhibition [3]: 2%
inhibition [4]: -5%
SMILES: O=C(C1CCN(c2ccc(Cl)cn2)CC1)N(CC1CC1)c1ccc(Cl)cc1
